Laboratory results reported in patent US20240228572A1 (i2o Therapeutics, Inc., priority 2020, published 2024).
*1 amine or outer side, *2 acyl side, *3 side chain or, on linkers, in order; H or OH if unused. Where a SMILES comes first, the peptide text is derived from it. Bridges are numbered along the chain shown (N, C = ends). Side-chain parts run from the residue outwards. [ ]: non-standard residue; d: D form. The star is where a group is joined. C20 diacid = O=C(O)CCCCCCCCCCCCCCCCCCC(=O)*; γGlu = O=C(O)[C@H](CCC(=O)[*:2])N[*:1]; AEEA = NCCOCCOCC(=O)O; Aib = CC(C)(N)C(=O)O

Columns and labels:
[1] = molecular target: T1, human Glucagon receptor (GCGR) (Homo sapiens, UniProt P47871); experiment: cAMP accumulation assay, CHO-K1 cells expressing human GCGR; assay type: cell-based; conditions: mean pEC50, Table 10
T1 construct: A cDNA fragment encoding the full-length open reading frame of the human GCGR; expressed in transfected cells; host or cells: CHO-K1, pcDNA3.1+, Lipofectamine 2000
T1 sequence (P47871 26-477): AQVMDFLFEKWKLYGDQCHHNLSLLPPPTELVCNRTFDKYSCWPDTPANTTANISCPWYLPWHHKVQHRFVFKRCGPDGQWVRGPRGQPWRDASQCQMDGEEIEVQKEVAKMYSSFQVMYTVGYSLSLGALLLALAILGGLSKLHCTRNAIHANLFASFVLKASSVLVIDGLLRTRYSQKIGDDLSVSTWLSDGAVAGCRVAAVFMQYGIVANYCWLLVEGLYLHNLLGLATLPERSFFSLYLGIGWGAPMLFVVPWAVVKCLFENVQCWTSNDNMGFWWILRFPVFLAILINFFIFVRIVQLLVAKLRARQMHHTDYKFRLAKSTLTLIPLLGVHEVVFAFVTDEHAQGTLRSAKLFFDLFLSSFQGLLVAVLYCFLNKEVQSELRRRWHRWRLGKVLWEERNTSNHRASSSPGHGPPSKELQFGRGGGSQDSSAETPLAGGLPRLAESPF
Source text: In the presence of the non-specific cAMP/cGMP phosphodiesterase inhibitor, 3-isobutyl-1-methylxanthine (IBMX), accumulating cAMP can be measured in vitro using common detection methods. Thus, it is possible to estimate an in vitro potency (pEC50) for peptides activating each of these receptors using fit dose-response curves for cAMP accumulation.
A cDNA fragment encoding the full-length open reading frame of the cynomolgus monkey GLP-1R (Genebank accession #XM_028847603 was cloned into pcDNA3.1+ for expression in CHO-K1 cells. A cDNA fragment encoding the full-length open reading frame of the human GCGR (Genebank accession #NM_000160 was cloned into pcDNA3.1+ for expression in CHO-K1 cells. A cDNA fragment encoding the full-length open reading frame of the rat GCGR (Genebank accession #NM_12091 was cloned into pcDNA3.1+ for expression in CHO-K1 cells. A cDNA fragment encoding the full-length open reading frame of the cynomolgus monkey GCGR (Genebank accession #XM_005585255 was cloned into pcDNA3.1+ for expression in CHO-K1 cells.
On day 1, CHO-K1 cells were plated at 1.5 million cells per T75 flask in 90% F12-K media supplemented with 10% FBS. On day 3 cells were transfected with 40 mcg of each expression plasmid using Lipofectamine 2000 transfection reagent. On day 5, cells were dispensed at 1000 cells per well in white 384-well OptiPlates in 5 mcL of assay buffer consisting of 1×HBSS, 5 mM HEPES, 0.5 mM IBMX, and 0.1% casein.
Peptides were serially diluted 4-fold in assay buffer to final concentrations ranging from 1×10^−9 M to 9.5×10^−16 M. Two assay controls consisting of 50 mcM forskolin (cAMP system maximum) or assay buffer only (cAMP system minimum) were also prepared. Five microliters of each peptide-concentration, or assay control, was added to triplicate wells and incubated for thirty minutes at room temperature. During this incubation step a 4× europium labelled cAMP tracer solution and a 4× Ulight®-anti-cAMP solution (consisting of an anti-cAMP monoclonal antibody labelled with Ulight™ dye) was prepared according to the manufacturer's protocol (PerkinElmer LANCE Ultra cAMP kit). Following this incubation, 5 mcL europium labelled cAMP and 5 mcL Ulight anti-cAMP antibody was added to each well. The plate was covered to prevent evaporation and incubated for 60 minutes at room temperature in the dark. Plates were read on an Envision fluorescent plate reader (PerkinElmer).
Test values were first normalized to the system maximum and system minimum averaged values in Excel using the formula: (test value−system min average)/(system max average -system min average)*100. Normalized test values represent a baseline corrected percentage of the system maximum cAMP response induced by forskolin. Data from up to 3 replicate tests were analyzed for each peptide. Potency values were estimated using GraphPad Prism software (v7.04) by fitting data to a 4-parameter logistic curve model: Y=Bottom+(Top−Bottom)/(1+10^((LogEC50−X))). The Hill slope was constrained to 1.0. EC50 values were converted to pEC50 values using the formula: pEC50=−Log (EC50).

[2] = molecular target: T2, human GLP-1 receptor (GLP-1R) (Homo sapiens, UniProt P43220); experiment: cAMP accumulation assay, CHO-K1 cells stably expressing human GLP-1R; assay type: cell-based; conditions: cAMP accumulation, mean pEC50, Table 10
T2 construct: expressed in transfected cells
T2 sequence (P43220 24-463): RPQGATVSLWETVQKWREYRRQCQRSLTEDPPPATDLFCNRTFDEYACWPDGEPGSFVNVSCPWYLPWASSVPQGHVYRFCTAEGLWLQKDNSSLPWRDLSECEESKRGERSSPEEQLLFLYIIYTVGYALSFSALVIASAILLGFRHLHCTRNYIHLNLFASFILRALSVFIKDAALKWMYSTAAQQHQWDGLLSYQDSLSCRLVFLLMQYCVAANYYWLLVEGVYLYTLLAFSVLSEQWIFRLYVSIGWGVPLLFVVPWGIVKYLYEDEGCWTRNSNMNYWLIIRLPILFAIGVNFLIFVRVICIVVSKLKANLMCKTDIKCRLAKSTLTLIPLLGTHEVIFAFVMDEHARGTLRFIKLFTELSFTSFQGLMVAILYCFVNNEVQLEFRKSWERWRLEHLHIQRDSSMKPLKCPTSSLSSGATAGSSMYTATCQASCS

| SMILES | EC50 [1] | EC50 [2] |
| --- | --- | --- |
| CC(C)C[C@H](NC(=O)[C@H](Cc1ccc(O)cc1)NC(=O)[C@H](CCCCN)NC(=O)[C@H](CO)NC(=O)[C@H](Cc1ccc(O)cc1)NC(=O)[C@H](CC(=O)O)NC(=O)[C@H](CO)NC(=O)[C@@H](NC(=O)[C@H](Cc1ccccc1)NC(=O)[C@@H](NC(=O)CNC(=O)[C@H](Cc1c[nH]cn1)NC(=O)[C@H](CO)NC(=O)[C@@H](N)Cc1ccc(O)cc1)[C@@H](C)O)[C@@H](C)O)C(=O)N[C@@H](CC(=O)O)C(=O)NC(C)(C)C(=O)N[C@@H](CCCCN)C(=O)N[C@@H](Cc1ccc(O)cc1)C(=O)N[C@@H](C)C(=O)N[C@@H](CCC(N)=O)C(=O)N[C@@H](CCCCNC(=O)CC[C@H](NC(=O)CC[C@H](NC(=O)CCCCCCCCCCCCCCCCCCC(=O)O)C(=O)O)C(=O)O)C(=O)N[C@@H](Cc1ccccc1)C(=O)N[C@H](C(=O)NC(C)(C)C(=O)N[C@@H](Cc1c[nH]c2ccccc12)C(=O)N[C@@H](CC(C)C)C(=O)N[C@@H](CCC(=O)O)C(=O)N[C@@H](CC(=O)O)C(=O)N[C@@H](CCC(=O)O)C(=O)N1CCC[C@H]1C(=O)N[C@@H](CO)C(=O)N[C@@H](CO)C(=O)NCC(=O)N[C@@H](C)C(=O)N1CCC[C@H]1C(=O)N1CCC[C@H]1C(=O)N1CCC[C@H]1C(=O)N[C@@H](CO)C(=O)O)C(C)C [Compound A14] (H-YSHGTFTSDYSKYLD[Aib]KYAQK([γGlu-γGlu-C20 diacid])FV[Aib]WLEDEPSSGAPPPS-OH; N-terminus assumed) | 6.31 pM | > 1000 pM |
| CC(C)C[C@H](NC(=O)[C@H](Cc1ccc(O)cc1)NC(=O)[C@H](CCCCN)NC(=O)[C@H](CO)NC(=O)[C@H](Cc1ccc(O)cc1)NC(=O)[C@H](CC(=O)O)NC(=O)[C@H](CO)NC(=O)[C@@H](NC(=O)[C@H](Cc1ccccc1)NC(=O)[C@@H](NC(=O)CNC(=O)[C@H](Cc1c[nH]cn1)NC(=O)[C@H](CO)NC(=O)[C@@H](N)Cc1ccc(O)cc1)[C@@H](C)O)[C@@H](C)O)C(=O)N[C@@H](CC(=O)O)C(=O)N[C@@H](CCCCNC(=O)CC[C@H](NC(=O)CC[C@H](NC(=O)COCCOCCNC(=O)CCCCCCCCCCCCCCCCCCC(=O)O)C(=O)O)C(=O)O)C(=O)N[C@@H](CCCCN)C(=O)N[C@@H](Cc1ccc(O)cc1)C(=O)N[C@@H](C)C(=O)N[C@@H](CCC(N)=O)C(=O)N[C@@H](CCC(=O)O)C(=O)N[C@@H](Cc1ccccc1)C(=O)N[C@H](C(=O)NC(C)(C)C(=O)N[C@@H](Cc1c[nH]c2ccccc12)C(=O)N[C@@H](CC(C)C)C(=O)N[C@@H](CCC(=O)O)C(=O)N(C)[C@@H](CCC(=O)O)C(=O)N[C@@H](CCC(=O)O)C(=O)N1CCC[C@H]1C(=O)N[C@@H](CO)C(=O)N[C@@H](CO)C(=O)NCC(=O)N[C@@H](C)C(=O)N1CCC[C@H]1C(=O)N1CCC[C@H]1C(=O)N1CCC[C@H]1C(=O)N[C@@H](CO)C(=O)O)C(C)C [Compound A18] | 39.8 pM | > 1000 pM |
| CC(C)C[C@H](NC(=O)[C@H](Cc1ccc(O)cc1)NC(=O)[C@H](CCCCN)NC(=O)[C@H](CO)NC(=O)[C@H](Cc1ccc(O)cc1)NC(=O)[C@H](CC(=O)O)NC(=O)[C@H](CO)NC(=O)[C@@H](NC(=O)[C@H](Cc1ccccc1)NC(=O)[C@@H](NC(=O)CNC(=O)[C@H](Cc1c[nH]cn1)NC(=O)[C@H](CO)NC(=O)[C@@H](N)Cc1ccc(O)cc1)[C@@H](C)O)[C@@H](C)O)C(=O)N[C@@H](CC(=O)O)C(=O)N[C@@H](CCCCNC(=O)CC[C@H](NC(=O)CC[C@H](NC(=O)COCCOCCNC(=O)CCCCCCCCCCCCCCCCCCC(=O)O)C(=O)O)C(=O)O)C(=O)N[C@@H](CCCCN)C(=O)N[C@@H](Cc1ccc(O)cc1)C(=O)N[C@@H](C)C(=O)N[C@@H](CCCCN)C(=O)N[C@@H](CCC(=O)O)C(=O)N[C@@H](Cc1ccccc1)C(=O)N[C@H](C(=O)NC(C)(C)C(=O)N[C@@H](Cc1c[nH]c2ccccc12)C(=O)N[C@@H](CC(C)C)C(=O)N[C@@H](CCC(=O)O)C(=O)N[C@@H](CO)C(=O)N[C@@H](CCC(=O)O)C(=O)N1CCC[C@H]1C(=O)N[C@@H](CO)C(=O)N[C@@H](CO)C(=O)NCC(=O)N[C@@H](C)C(=O)N1CCC[C@H]1C(=O)N1CCC[C@H]1C(=O)N1CCC[C@H]1C(=O)N[C@@H](CO)C(=O)O)C(C)C [Compound A22] (H-YSHGTFTSDYSKYLDK([γGlu-γGlu-AEEA-C20 diacid])KYAKEFV[Aib]WLESEPSSGAPPPS-OH; N-terminus assumed) | 2 pM | > 1000 pM |
| CC(C)C[C@H](NC(=O)[C@H](Cc1ccc(O)cc1)NC(=O)[C@H](CCCCN)NC(=O)[C@H](CO)NC(=O)[C@H](Cc1ccc(O)cc1)NC(=O)[C@H](CC(=O)O)NC(=O)[C@H](CO)NC(=O)[C@@H](NC(=O)[C@H](Cc1ccccc1)NC(=O)[C@@H](NC(=O)CNC(=O)[C@H](Cc1c[nH]cn1)NC(=O)[C@H](CO)NC(=O)[C@@H](N)Cc1ccc(O)cc1)[C@@H](C)O)[C@@H](C)O)C(=O)N[C@@H](CC(=O)O)C(=O)N[C@@H](CCCCNC(=O)CC[C@H](NC(=O)CC[C@H](NC(=O)COCCOCCNC(=O)CCCCCCCCCCCCCCCCCCC(=O)O)C(=O)O)C(=O)O)C(=O)N[C@@H](CCCCN)C(=O)N[C@@H](Cc1ccc(O)cc1)C(=O)N[C@@H](C)C(=O)N[C@@H](CCC(=O)O)C(=O)N[C@@H](CCC(=O)O)C(=O)N[C@@H](Cc1ccccc1)C(=O)N[C@H](C(=O)NC(C)(C)C(=O)N[C@@H](Cc1c[nH]c2ccccc12)C(=O)N[C@@H](CC(C)C)C(=O)N[C@@H](CCC(=O)O)C(=O)N[C@@H](CO)C(=O)N[C@@H](CCC(=O)O)C(=O)N1CCC[C@H]1C(=O)N[C@@H](CO)C(=O)N[C@@H](CO)C(=O)NCC(=O)N[C@@H](C)C(=O)N1CCC[C@H]1C(=O)N1CCC[C@H]1C(=O)N1CCC[C@H]1C(=O)N[C@@H](CO)C(=O)O)C(C)C [Compound A23] (H-YSHGTFTSDYSKYLDK([γGlu-γGlu-AEEA-C20 diacid])KYAEEFV[Aib]WLESEPSSGAPPPS-OH) | 3.16 pM | > 1000 pM |
| CC(C)C[C@H](NC(=O)[C@H](Cc1ccc(O)cc1)NC(=O)[C@H](CCCCN)NC(=O)[C@H](CO)NC(=O)[C@H](Cc1ccc(O)cc1)NC(=O)[C@H](CC(=O)O)NC(=O)[C@H](CO)NC(=O)[C@@H](NC(=O)[C@H](Cc1ccccc1)NC(=O)[C@@H](NC(=O)CNC(=O)[C@H](Cc1c[nH]cn1)NC(=O)[C@H](CO)NC(=O)[C@@H](N)Cc1ccc(O)cc1)[C@@H](C)O)[C@@H](C)O)C(=O)N[C@@H](CC(=O)O)C(=O)N[C@@H](CCCCNC(=O)CC[C@H](NC(=O)CC[C@H](NC(=O)COCCOCCNC(=O)CCCCCCCCCCCCCCCCCCC(=O)O)C(=O)O)C(=O)O)C(=O)N[C@@H](CCCCN)C(=O)N[C@@H](Cc1ccc(O)cc1)C(=O)N[C@@H](C)C(=O)N[C@H]1CCC(=O)NCCCC[C@@H](C(=O)N[C@@H](Cc2c[nH]c3ccccc23)C(=O)N[C@@H](CC(C)C)C(=O)N[C@@H](CCC(=O)O)C(=O)N[C@@H](CCC(=O)O)C(=O)N[C@@H](CCC(=O)O)C(=O)N2CCC[C@H]2C(=O)N[C@@H](CO)C(=O)N[C@@H](CO)C(=O)NCC(=O)N[C@@H](C)C(=O)N2CCC[C@H]2C(=O)N2CCC[C@H]2C(=O)N2CCC[C@H]2C(=O)N[C@@H](CO)C(=O)O)NC(=O)[C@H](C(C)C)NC(=O)[C@H](Cc2ccccc2)NC(=O)[C@H](CCCCN)NC1=O [Compound A25] (H-YSHGTFTSDYSKYLDK([γGlu-γGlu-AEEA-C20 diacid])KYAEKFVKWLEEEPSSGAPPPS-OH; lactam 20-24) | 1.26 pM | > 1000 pM |
